# In PubChem BioAssay AID328 (DTP/NCI, 2004):
# Several values for one entry are separate records, joined by “and”; a condition that tells them apart may be missing. Identical values can stand only once. Toxic doses and inconclusive results are not listed. Residues, ends and D or L forms follow the SMILES beside them. *: point of attachment. Cbz = O=C(OCc1ccccc1)*; Bn = c1ccc(C*)cc1
# System: BDF1 mice, P388 leukemia ip, median survival T/C
# Experiment: NCI In Vivo Anticancer Drug Screen. Data for tumor model P388 Leukemia (intraperitoneal) in B6D2F1 (BDF1) mice
# Settings: endpoint: median survival time, higher = longer survival
# Summary of the method: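 Read-out is survival of treated animals expressed relative to the vehicle group, as a T/C ratio.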
# [1] = dose: 100.0 mg/kg/injection, schedule: Q04DX003 (ip), vehicle: Klucel (hydroxypropylcellulose) (HPC)
# [2] = dose: 200.0 mg/kg/injection, schedule: Q04DX003 (ip), vehicle: Klucel (hydroxypropylcellulose) (HPC)
# [3] = dose: 400.0 mg/kg/injection, schedule: Q04DX003 (ip), vehicle: Klucel (hydroxypropylcellulose) (HPC)
# [4] = dose: 100.0 mg/kg/injection, schedule: Q01DX009 (ip), vehicle: Klucel (hydroxypropylcellulose) (HPC)
# [5] = dose: 200.0 mg/kg/injection, schedule: Q01DX009 (ip), vehicle: Klucel (hydroxypropylcellulose) (HPC)
# [6] = dose: 400.0 mg/kg/injection, schedule: Q01DX009 (ip), vehicle: Klucel (hydroxypropylcellulose) (HPC)
# [7] = dose: 50.0 mg/kg/injection, schedule: Q01DX009 (ip), vehicle: saline with Tween-80
# [8] = dose: 100.0 mg/kg/injection, schedule: Q01DX009 (ip), vehicle: saline with Tween-80
# [9] = dose: 200.0 mg/kg/injection, schedule: Q01DX009 (ip), vehicle: saline with Tween-80
# [10] = dose: 12.5 mg/kg/injection, schedule: Q01DX009 (ip), vehicle: saline with Tween-80
# [11] = dose: 25.0 mg/kg/injection, schedule: Q01DX009 (ip), vehicle: saline with Tween-80
# [12] = dose: 25.0 mg/kg/injection, schedule: Q04DX003 (ip), vehicle: saline with Tween-80
# [13] = dose: 50.0 mg/kg/injection, schedule: Q04DX003 (ip), vehicle: saline with Tween-80
# [14] = dose: 100.0 mg/kg/injection, schedule: Q04DX003 (ip), vehicle: saline with Tween-80
# [15] = dose: 100.0 mg/kg/injection, schedule: Q01DX001 (ip), vehicle: saline with Tween-80
# [16] = dose: 6.25 mg/kg/injection, schedule: Q01DX009 (ip), vehicle: saline with Tween-80
compound,measurement,setting,value
O=C(N=C1C=CC(=NC(=O)OCc2ccccc2)C=C1)OCc1ccccc1,T/C,[1],95 % of control
same,T/C,[2],100 % of control
same,T/C,[3],100 % of control
CC1C(=O)OC(C)(C)OC1=O,T/C,"dose: 25.0 mg/kg/injection, schedule: Q01DX009 (ip), vehicle: Klucel (hydroxypropylcellulose) (HPC)",106 % of control
same,T/C,"dose: 25.0 mg/kg/injection, schedule: Q04DX003 (ip), vehicle: Klucel (hydroxypropylcellulose) (HPC)",91 % of control
same,T/C,"dose: 50.0 mg/kg/injection, schedule: Q01DX009 (ip), vehicle: Klucel (hydroxypropylcellulose) (HPC)",97 % of control
same,T/C,"dose: 50.0 mg/kg/injection, schedule: Q04DX003 (ip), vehicle: Klucel (hydroxypropylcellulose) (HPC)",123 % of control
same,T/C,[4],105 % of control
same,T/C,[1],97 % of control
same,T/C,[5],104 % of control
same,T/C,[2],94 % of control
same,T/C,[6],99 % of control
same,T/C,[3],106 % of control
CC1(C)C/C(=C\c2ccc(Br)cc2)C(=O)c2ccccc21,T/C,[4],100 % of control
same,T/C,[5],105 % of control
same,T/C,[6],95 % of control
Cc1ccc2c(c1)CCCN2C=O,T/C,[7],104 % of control
same,T/C,[8],109 % of control
same,T/C,[9],123 % of control
Nc1ccc(C(OC(=O)c2cc3ccccc3c(Cc3c(O)c(C(=O)OC(c4ccc(N)cc4)(c4ccc(N)cc4)c4ccc(N)cc4)cc4ccccc34)c2O)(c2ccc(N)cc2)c2ccc(N)cc2)cc1,T/C,[10],150 % of control
CC(C)CC(NC(=O)C1CCCN1C(=O)C(CSCc1ccccc1)NC(=O)C(CC(N)=O)NC(=O)C(CCC(N)=O)NC(=O)OCc1ccccc1)C(=O)NCC(N)=O (stereo not drawn) (Cbz-QNC(Bn)PLG-NH2; configuration not given here),T/C,[1],105 % of control
same,T/C,[2],102 % of control
same,T/C,[3],98 % of control
COc1cc(-c2cc(=O)c3c(OC)c(OC)c(OC)c(OC)c3o2)cc2c1OCO2,T/C,"dose: 100.0 mg/kg/injection, schedule: Q04DX002 (ip), vehicle: Klucel (hydroxypropylcellulose) (HPC)",97 % of control
same,T/C,"dose: 200.0 mg/kg/injection, schedule: Q04DX002 (ip), vehicle: Klucel (hydroxypropylcellulose) (HPC)",103 % of control
same,T/C,"dose: 400.0 mg/kg/injection, schedule: Q04DX002 (ip), vehicle: Klucel (hydroxypropylcellulose) (HPC)",97 % of control
COc1ccc(OC)c2c(/C=C/c3ccc(N(C)C)cc3)ccnc12,T/C,[10],108 % of control
same,T/C,[11],103 % of control
same,T/C,[7],94 % of control and 110 % of control
same,T/C,[8],103 % of control
same,T/C,[9],91 % of control
O=c1[nH]c(=O)c2cccnc2[nH]1,T/C,"dose: 25.0 mg/kg/injection, schedule: Q01DX009 (ip), vehicle: saline sonified",100 % of control
same,T/C,"dose: 50.0 mg/kg/injection, schedule: Q01DX009 (ip), vehicle: saline sonified",100 % of control
same,T/C,"dose: 100.0 mg/kg/injection, schedule: Q01DX009 (ip), vehicle: saline sonified",94 % of control
CCCOc1ccc(-c2nc(-c3ccc(N=Cc4ccc(N(CCOS(C)(=O)=O)CCOS(C)(=O)=O)cc4C)cc3)cs2)cc1,T/C,[12],156 % of control
same,T/C,[13],175 % of control
same,T/C,[14],166 % of control
C[N+](C)(CC(=O)Nc1ccc(Cl)c(C(F)(F)F)c1)CC(=O)c1ccc(Cl)c(Cl)c1,T/C,"dose: 200.0 mg/kg/injection, schedule: Q04DX003 (ip), vehicle: saline sonified",100 % of control
same,T/C,"dose: 400.0 mg/kg/injection, schedule: Q04DX003 (ip), vehicle: saline sonified",104 % of control
CC1(C#N)CCC2c3ccccc3CCC2C1=O (stereo not drawn),T/C,"dose: 100.0 mg/kg/injection, schedule: Q04DX003 (ip), vehicle: saline",100 % of control
same,T/C,"dose: 200.0 mg/kg/injection, schedule: Q04DX003 (ip), vehicle: saline",100 % of control
same,T/C,"dose: 400.0 mg/kg/injection, schedule: Q04DX003 (ip), vehicle: saline",100 % of control
NC1CC2(CCC1=O)c1ccccc1-c1ccccc12 (stereo not drawn),T/C,"dose: 25.0 mg/kg/injection, schedule: Q01DX001 (ip), vehicle: saline with Tween-80",96 % of control
same,T/C,"dose: 50.0 mg/kg/injection, schedule: Q01DX001 (ip), vehicle: saline with Tween-80",94 % of control
same,T/C,[15],97 % of control
CCCCCCCCCCCCCCCCC(C(=O)O)C(O)(CC(=O)O)C(=O)O (stereo not drawn),T/C,"dose: 25.0 mg/kg/injection, schedule: Q01DX010 (ip), vehicle: saline",104 % of control
same,T/C,"dose: 50.0 mg/kg/injection, schedule: Q01DX010 (ip), vehicle: saline",100 % of control
Cc1cc(N(CCCl)CCCl)ccc1C=Nc1ccc(F)cc1,T/C,"dose: 400.0 mg/kg/injection, schedule: Q04DX003 (ip), vehicle: saline with Tween-80",150 % of control
same,T/C,"dose: 600.0 mg/kg/injection, schedule: Q04DX003 (ip), vehicle: saline with Tween-80",179 % of control
CC(C)(C)c1cc2c3c(c1)C(C)(C)OS3(C)(=O)OC2(C)C,T/C,"dose: 12.5 mg/kg/injection, schedule: Q04DX002 (ip), vehicle: saline with Tween-80",93 % of control
same,T/C,"dose: 25.0 mg/kg/injection, schedule: Q04DX002 (ip), vehicle: saline with Tween-80",107 % of control
same,T/C,"dose: 50.0 mg/kg/injection, schedule: Q04DX002 (ip), vehicle: saline with Tween-80",97 % of control and 98 % of control
CC(=O)N1c2ccccc2Sc2cc(C(O)(C(F)(F)F)C(F)(F)F)ccc21,T/C,[11],86 % of control
same,T/C,[7],90 % of control
same,T/C,[8],90 % of control
Nc1ccc(OCc2ccccc2)cc1,T/C,[16],90 % of control
same,T/C,[10],100 % of control
same,T/C,[11],100 % of control
same,T/C,[12],95 % of control
same,T/C,[13],100 % of control
same,T/C,[14],100 % of control
CSC(=S)NN=C1CCCCC1,T/C,"dose: 0.78 mg/kg/injection, schedule: Q01DX009 (ip), vehicle: saline with Tween-80",99 % of control
same,T/C,"dose: 1.56 mg/kg/injection, schedule: Q01DX009 (ip), vehicle: saline with Tween-80",105 % of control
same,T/C,"dose: 3.13 mg/kg/injection, schedule: Q01DX009 (ip), vehicle: saline with Tween-80",104 % of control
same,T/C,[16],102 % of control
O=Cc1c2c(c(C=O)c3c1OCO3)OCO2,T/C,[15],97 % of control
same,T/C,"dose: 200.0 mg/kg/injection, schedule: Q01DX001 (ip), vehicle: saline with Tween-80",97 % of control
same,T/C,"dose: 400.0 mg/kg/injection, schedule: Q01DX001 (ip), vehicle: saline with Tween-80",90 % of control
